Experimental data published in paper PMC10831071, “Reaction hijacking inhibition of Plasmodium falciparum asparagine tRNA synthetase” (Nature Communications, 2024).
Several values for one entry are separate records, joined by “and”; a condition that tells them apart may be missing. Equal values may be shown once.

Experiments:
[1] = system: PfGlyRS cKD P. falciparum line; assay: microbe, parasite or virus in culture; type: cell-based, Plasmodium falciparum; conditions: for Growth: PfGlyRS K/D; for IC50: PfGlyRS line, individual repeats
Description: Conditional knockdown (cKD) P. falciparum lines were generated for the cytosolic AsnRS (PF3D7_0211800), cytosolic AlaRS (PF3D7_1367700), cytosolic GlyRS (GlyRS; PF3D7_1420400), PfNT4 (PF3D7_0103200), P. falciparum glutamate dehydrogenase 3 (GDH3; PF3D7_0802000), and P. falciparum carbonic anhydrase (CA, PF3D7_1140000) by fusing the coding sequences and non-coding RNA aptamer sequences in the 3’-UTR, permitting translation regulation using the TetR-DOZI system[59],[60]. Gene editing was achieved by CRISPR/SpCas9 using the linear pSN054 vector that contains cloning sites for the left homology region (LHR) and the right homology region (RHR) as well a target-specific guide RNA under control of the T7 promoter. Cloning into the pSN054 donor vector was carried out following described procedures[59],[60]. The vector includes V5-2xHA epitope tags, a 10x tandem array of TetR aptamers upstream of an Hsp86 3’UTR, and a multicistronic cassette for expression of TetR-DOZI (translation regulation), blasticidin S-deaminase (selection marker) and a Renilla luciferase (RLuc) reporter. All primer and synthetic fragment sequences that were generated using the BioXP™ system and IDT gBlocks™ are included in Supplementary Table 9. The final constructs were sequence-verified and further confirmed by restriction digests.
Transfection into Cas9- and T7 RNA polymerase-expressing NF54 parasites was carried out by pre-loading red blood cells (RBCs) with the donor vector[61]. […] Cultures were monitored by Giemsa smears and RLuc measurements.
DMSO- and dihydroartemisinin-treatment (0.5 µM) served as reference controls.

P. falciparum Dd2 parent = assay: 72 h sensitivity of wildtype Dd2 parent line; type: cell-based, Plasmodium falciparum; conditions: for growth after 72 h exposure, normalised to no drug: replicates
PfAsnRS = assay: LC-MS of Asn-OSM-S-106 adduct generated by recombinant PfAsnRS; type: biochemical, Plasmodium falciparum; conditions: 1 μM PfAsnRS, 10 μM OSM-S-106, 1 h, 37 °C; individual experiments
Protocol: (§1) The reaction buffer consists of 100 mM HEPES pH 7.5 (KOH), 160 mM KCl, 3.5 mM MgCl2, 1 mM DTT. The mixture was incubated at 37 °C for 1 h. After that, an equal volume of 8 M urea was added to the mixture. Finally, trifluoroacetic acid was added to a final concentration of 1%. The sample was centrifuged at 15,000 × g for 10 min and the supernatant was used for LCMS analysis. […] Quantification of the conjugates was done using Skyline (version 21.1.0.278).
(§2) Samples were analyzed by reversed-phase ultra-high-performance liquid chromatography (UHPLC) coupled to tandem mass spectrometry (MS/MS) employing a Vanquish UHPLC linked to an Orbitrap Fusion Lumos mass spectrometer (Thermo Fisher Scientific, San Jose, CA, USA) operated in positive ion mode. Solvent A was 0.1% formic acid/10 mM ammonium acetate in water and solvent B was 0.1% formic acid/10 mM ammonium acetate in acetonitrile. […] Finally, the percentage of solvent B was decreased to 0% in 0.1 min and maintained for 3.9 min.
(§3) MS experiments were performed using a Heated Electrospray Ionization (HESI) source. The spray voltage, flow rate of sheath, auxiliary and sweep gases were 3.5 kV, 20, 6, and 1 ‘arbitrary’ unit(s), respectively. The ion transfer tube and vaporizer temperatures were maintained at 350 °C and 400 °C, respectively, and the S-Lens RF level was set at 50%. […]

HsAsnRS = biological target: T1, HsAsnRS (Homo sapiens, UniProt O43776); assay: LC-MS of Asn-OSM-S-106 adduct generated by recombinant HsAsnRS; type: biochemical
T1 construct: HsAsnRS (residues M1–P548) and CDHsAsnRS (residues A98–P548); His6 (N, cleaved yes); made in house; host or cells: E. coli BL21 (DE3), pET11a
T1 sequence (O43776 1-548): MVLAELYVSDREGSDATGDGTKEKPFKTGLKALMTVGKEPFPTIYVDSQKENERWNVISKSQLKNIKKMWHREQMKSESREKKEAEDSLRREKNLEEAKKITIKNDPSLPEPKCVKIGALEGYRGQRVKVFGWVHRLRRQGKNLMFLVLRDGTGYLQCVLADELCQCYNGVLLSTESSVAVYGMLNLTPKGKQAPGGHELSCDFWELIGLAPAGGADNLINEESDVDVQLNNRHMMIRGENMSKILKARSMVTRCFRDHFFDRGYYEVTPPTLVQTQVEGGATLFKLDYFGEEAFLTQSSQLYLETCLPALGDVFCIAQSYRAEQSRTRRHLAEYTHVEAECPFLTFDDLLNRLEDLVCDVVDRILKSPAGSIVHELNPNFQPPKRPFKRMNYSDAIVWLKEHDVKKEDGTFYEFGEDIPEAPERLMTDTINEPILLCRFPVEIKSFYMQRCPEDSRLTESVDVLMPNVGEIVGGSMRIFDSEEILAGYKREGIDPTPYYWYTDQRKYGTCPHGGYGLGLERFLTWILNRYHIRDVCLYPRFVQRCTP
Protocol: as §1, §2, §3

## Nc1ncnc2cc(-c3cccc(S(N)(=O)=O)c3)sc12 [OSM-S-106]
[1]; 3.125 nM OSM-S-106, 500 nM aTc
  Growth: 112.465 and 111.772 and 85.4538
[1]; 6.25 nM OSM-S-106, 500 nM aTc
  Growth: 122.27 and 121.35 and 91.2762
[1]; 12.5 nM OSM-S-106, 500 nM aTc
  Growth: 106.05 and 112.162 and 76.632
[1]; 100 nM OSM-S-106, 500 nM aTc
  Growth: 9.878 and 6.142 and 8.685
[1]; 200 nM OSM-S-106, 500 nM aTc
  Growth: 7.891 and 8.53 and 4.96
[1]; 1 nM, […] aTc or no aTc
  IC50: 40.7 nM
[1]; 500 nM aTc
  IC50: 37.2 nM
[1]; Plasmodium falciparum, 1 nM, […] aTc or no aTc
  IC50: 39.5 nM
[1]; Plasmodium falciparum, 500 nM aTc
  IC50: 39.3 nM
P. falciparum Dd2 parent; Dd2 parent, 3.90625 nM
  growth after 72 h exposure, normalised to no drug: 105.433 and 105.733 and 104.567 and 104.167 and 104.633
P. falciparum Dd2 parent; Dd2 parent, 7.8125 nM
  growth after 72 h exposure, normalised to no drug: 105.2 and 103.8 and 105.633 and 102.933 and 104.1
P. falciparum Dd2 parent; Dd2 parent, 31.25 nM
  growth after 72 h exposure, normalised to no drug: 88.9667 and 98.9 and 97.0667 and 93.5333 and 97.5667
P. falciparum Dd2 parent; Dd2 parent, 62.5 nM
  growth after 72 h exposure, normalised to no drug: 45.3 and 68.4 and 68.8333 and 58.4667 and 65.5
P. falciparum Dd2 parent; Dd2 parent, 125 nM
  growth after 72 h exposure, normalised to no drug: 7.633 and 16.6667 and 15.5333 and 13.8333 and 17.5667
P. falciparum Dd2 parent; Dd2 parent, 250 nM
  growth after 72 h exposure, normalised to no drug: 0.2 and 1.267 and 0.5667 and -1.767 and 2.067
P. falciparum Dd2 parent; Dd2 parent, 500 nM
  growth after 72 h exposure, normalised to no drug: -1.167 and 0 and -0.8 and -3.167 and 0.4
P. falciparum Dd2 parent; Dd2 parent, 1000 nM
  growth after 72 h exposure, normalised to no drug: -1.867 and -0.3333 and -1.3 and -3.5 and -0.4667
P. falciparum Dd2 parent; Dd2 parent, 2000 nM
  growth after 72 h exposure, normalised to no drug: -0.8333 and -0.3667 and -0.8667 and -2.833 and 0.5
P. falciparum Dd2 parent; Dd2 parent, individual experiments
  IC50: 75.6 nM and 76.2 nM and 70 nM and 74.2 nM
P. falciparum Dd2 parent; Plasmodium falciparum, DD2, Dd2 parent, individual experiments
  IC50: 57 nM
P. falciparum Dd2 parent; Plasmodium falciparum, DD2, Dd2 parent, mean ± S.D., five experiments
  IC50: 71 nM
PfAsnRS
  MS peak area (Asn-OSM-S-106 adduct): 50050244 and 46285516 and 50264000 and 46572204
HsAsnRS; 1 μM HsAsnRS, 10 μM OSM-S-106, 1 h, 37 °C, individual experiments
  MS peak area (Asn-OSM-S-106 adduct): 3564405 and 3396334 and 2555457 and 1397007
HsAsnRS; 10 μM OSM-S-106, ATP, Asn, E. coli tRNA
  Asn-OSM-S-106 signal intensity with HsAsnRS, lower than with PfAsnRS: 18 fold
